{"source": "patent US20230041563A1", "about": "“N-(1,3,4-OXADIAZOL-2-YL)ARYLCARBOXAMIDES OR SALTS THEREOF, PREPARATION METHODS, HERBICIDAL COMPOSITIONS AND USES THEREOF” (priority 2018, published 2023)", "assay_type_in_all_cases": "in vivo", "key": {"weeds": {"test_system": "weeds", "assay": "Actual control effects and combined effects of mixtures of active ingredients (i) and (ii), stem-leaf treatment, Gowing method", "settings": "stem-leaf treatment, 20 days"}, "Echinochloa crusgalli": {"test_system": "Echinochloa crusgalli", "assay": "Weeding effect in post-emergence stage (greenhouse pot spray)", "summary_of_the_method": "(§1)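 Post-emergence foliar spray on 2-3 leaf greenhouse pot plants at 15 to 500 g a.i./ha with methyl oleate emulsifiable concentrate (1.5 liter/ha) added; growth control by fresh weight after 3 weeks.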"}, "Digitaria sanguinalis [1]": {"test_system": "Digitaria sanguinalis", "assay": "Weeding effect in post-emergence stage (greenhouse pot spray)", "summary_of_the_method": "as §1"}, "Abutilon theophrasti [2]": {"test_system": "Abutilon theophrasti", "assay": "Weeding effect in post-emergence stage (greenhouse pot spray)", "summary_of_the_method": "as §1"}, "Setaria viridis": {"test_system": "Setaria viridis", "assay": "Weeding effect in post-emergence stage (greenhouse pot spray)", "settings": "Table 3, dose 60 g a.i./ha", "summary_of_the_method": "as §1"}, "Green Setaria viridis": {"test_system": "Green Setaria viridis", "assay": "Post-emergence control experiment of R configuration compound activity (weeds 4-5 leaf stage, 25 days)", "description": "(§2) Experiment on weeding effect in post-emergence stage: after 3-4 weeks of sowing, the test plants were treated in the 1.5-2 leaf stage of the directly sowed rice Longyang 16, and the 4-5 leaf stage of weeds. After the application of the compounds of the present invention, the plants were cultured for 25 days in the greenhouse, and then the experimental results of the weeding were counted."}, "Leptochloa chinensis": {"test_system": "Leptochloa chinensis", "assay": "Post-emergence control experiment of R configuration compound activity (weeds 4-5 leaf stage, 25 days)", "description": "as §2"}, "Digitaria sanguinalis [3]": {"test_system": "Digitaria sanguinalis", "assay": "Post-emergence control experiment of R configuration compound activity (weeds 4-5 leaf stage, 25 days)", "description": "as §2"}, "Abutilon theophrasti [4]": {"test_system": "Abutilon theophrasti", "assay": "Post-emergence control experiment of R configuration compound activity (weeds 4-5 leaf stage, 25 days)", "description": "as §2"}, "Stellaria media": {"test_system": "Stellaria media", "assay": "Weeding effect in post-emergence stage (greenhouse pot spray)", "summary_of_the_method": "as §1"}, "Amaranthus retroflexus": {"test_system": "Amaranthus retroflexus", "assay": "Weeding effect in post-emergence stage (greenhouse pot spray)", "summary_of_the_method": "as §1"}, "Rice (Longyang 16)": {"test_system": "Rice (Longyang 16)", "assay": "Post-emergence control experiment of R configuration compound activity (directly sowed rice 1.5-2 leaf stage, 25 days)", "description": "as §2\nLongyang 16 is a representative and important long-grain fragrant rice in Northeast China. Long-grain fragrant rice is more sensitive to herbicides, especially to HPPD herbicides such as Mesotrione, Benzobicylon and the like, which are prone to causing phytotoxicity."}}, "data": [{"compound": "Cc1nnc(NC(=O)c2ccc(C(F)(F)F)c([S+](C)[O-])c2F)o1", "note": "(racemic) [Compound 1-2]", "values": [{"measurement": "Control effect of (i) alone at corresponding dose", "setting": "weeds; Cyperus difformis, (i) 1 g a.i./mu", "value": 7.8, "unit": "%"}, {"measurement": "Control effect of (i) alone at corresponding dose", "setting": "weeds; Cyperus difformis, (i) 5 g a.i./mu", "value": 36.5, "unit": "%"}, {"measurement": "Control effect of (i) alone at corresponding dose", "setting": "weeds; Digitaria sanguinalis, (i) 1 g a.i./mu", "value": 18.2, "unit": "%"}, {"measurement": "Control effect of (i) alone at corresponding dose", "setting": "weeds; Digitaria sanguinalis, (i) 2 g a.i./mu", "value": 40.6, "unit": "%"}, {"measurement": "Control effect of (i) alone at corresponding dose", "setting": "weeds; Digitaria sanguinalis, (i) 3 g a.i./mu", "value": 65.3, "unit": "%"}, {"measurement": "Control effect of (i) alone at corresponding dose", "setting": "weeds; Echinochloa phyllopogon, (i) 1 g a.i./mu", "value": 12.6, "unit": "%"}, {"measurement": "Control effect of (i) alone at corresponding dose", "setting": "weeds; Echinochloa phyllopogon, (i) 2 g a.i./mu", "value": 26.8, "unit": "%"}, {"measurement": "Control effect of (i) alone at corresponding dose", "setting": "weeds; Echinochloa phyllopogon, (i) 3 g a.i./mu", "value": 53.7, "unit": "%"}, {"measurement": "Control effect of (i) alone at corresponding dose", "setting": "weeds; Leptochloa chinensis, (i) 5 g a.i./mu", "value": 6.5, "unit": "%"}, {"measurement": "Control effect of (i) alone at corresponding dose", "setting": "weeds; Leptochloa chinensis, (i) 15 g a.i./mu", "value": 30.6, "unit": "%"}, {"measurement": "Control effect of (i) alone at corresponding dose", "setting": "weeds; Monochoria vaginalis, (i) 3 g a.i./mu", "value": 7.8, "unit": "%"}, {"measurement": "Control effect of (i) alone at corresponding dose", "setting": "weeds; Monochoria vaginalis, (i) 5 g a.i./mu", "value": 7.8, "unit": "%"}, {"measurement": "Control effect of (i) alone at corresponding dose", "setting": "weeds; Monochoria vaginalis, (i) 15 g a.i./mu", "value": 30.9, "unit": "%"}, {"measurement": "Control effect of (i) alone at corresponding dose", "setting": "weeds; Sagittaria trifolia, (i) 1 g a.i./mu", "value": 19.7, "unit": "%"}, {"measurement": "Control effect of (i) alone at corresponding dose", "setting": "weeds; Sagittaria trifolia, (i) 3 g a.i./mu", "value": 50.3, "unit": "%"}, {"measurement": "Echinochloa crusgah (activity level)", "setting": "Echinochloa crusgalli; Table 2, dose 60 g a.i./ha", "value": "3 (Level 3: growth control rate is greater than or equal to 40% and less than 60%)"}, {"measurement": "Echinochloa crusgah (activity level)", "setting": "Echinochloa crusgalli; Table 2, dose 125 g a.i./ha", "value": "4 (Level 4: growth control rate is greater than or equal to 60% and less than 85%)"}, {"measurement": "Echinochloa crusgah (activity level)", "setting": "Echinochloa crusgalli; Table 2, dose 250 g a.i./ha", "value": "4 (Level 4: growth control rate is greater than or equal to 60% and less than 85%)"}, {"measurement": "Echinochloa crusgah (activity level)", "setting": "Echinochloa crusgalli; Table 2, dose 500 g a.i./ha", "value": "4 (Level 4: growth control rate is greater than or equal to 60% and less than 85%)"}, {"measurement": "Echinochloa crusgali (activity level)", "setting": "Echinochloa crusgalli; Table 3, dose 60 g a.i./ha", "value": "3 (Level 3: growth control rate is greater than or equal to 40% and less than 60%)"}, {"measurement": "Digitaria sanguinalis (activity level)", "setting": "Digitaria sanguinalis [1]; Table 2, dose 60 g a.i./ha", "value": "3 (Level 3: growth control rate is greater than or equal to 40% and less than 60%)"}, {"measurement": "Digitaria sanguinalis (activity level)", "setting": "Digitaria sanguinalis [1]; Table 2, dose 125 g a.i./ha", "value": "3 (Level 3: growth control rate is greater than or equal to 40% and less than 60%)"}, {"measurement": "Digitaria sanguinalis (activity level)", "setting": "Digitaria sanguinalis [1]; Table 2, dose 250 g a.i./ha", "value": "4 (Level 4: growth control rate is greater than or equal to 60% and less than 85%)"}, {"measurement": "Digitaria sanguinalis (activity level)", "setting": "Digitaria sanguinalis [1]; Table 2, dose 500 g a.i./ha", "value": "4 (Level 4: growth control rate is greater than or equal to 60% and less than 85%)"}, {"measurement": "Digitaria sanguinahs (activity level)", "setting": "Digitaria sanguinalis [1]; Table 3, dose 60 g a.i./ha", "value": "3 (Level 3: growth control rate is greater than or equal to 40% and less than 60%)"}, {"measurement": "Abutilion theophrasti (activity level)", "setting": "Abutilon theophrasti [2]; Table 2, dose 60 g a.i./ha", "value": "4 (Level 4: growth control rate is greater than or equal to 60% and less than 85%)"}, {"measurement": "Abutilion theophrasti (activity level)", "setting": "Abutilon theophrasti [2]; Table 2, dose 125 g a.i./ha", "value": "4 (Level 4: growth control rate is greater than or equal to 60% and less than 85%)"}, {"measurement": "Abutilion theophrasti (activity level)", "setting": "Abutilon theophrasti [2]; Table 2, dose 250 g a.i./ha", "value": "4 (Level 4: growth control rate is greater than or equal to 60% and less than 85%)"}, {"measurement": "Abutilion theophrasti (activity level)", "setting": "Abutilon theophrasti [2]; Table 2, dose 500 g a.i./ha", "value": "4 (Level 4: growth control rate is greater than or equal to 60% and less than 85%)"}, {"measurement": "Abutilon theophrasti (activity level)", "setting": "Abutilon theophrasti [2]; Table 3, dose 60 g a.i./ha", "value": "4 (Level 4: growth control rate is greater than or equal to 60% and less than 85%)"}, {"measurement": "Setaria viridis (activity level)", "setting": "Setaria viridis", "value": "3 (Level 3: growth control rate is greater than or equal to 40% and less than 60%)"}, {"measurement": "Green Setaria viridis (60 g a.i./ha) inhibition rate", "setting": "Green Setaria viridis; 60 g a.i./ha", "value": 20, "unit": "%"}, {"measurement": "Leptochloa chinensis (60 g a.i./ha) inhibition rate", "setting": "Leptochloa chinensis; 60 g a.i./ha", "value": 0, "unit": "%"}, {"measurement": "Digitaria sanguinalis (30 g a.i./ha) inhibition rate", "setting": "Digitaria sanguinalis [3]; 30 g a.i./ha", "value": 0, "unit": "%"}, {"measurement": "Ablation theophrasti (30 g a.i./ha) inhibition rate", "setting": "Abutilon theophrasti [4]; 30 g a.i./ha", "value": 60, "unit": "%"}, {"measurement": "Stellaria media (activity level)", "setting": "Stellaria media; Table 2, dose 60 g a.i./ha", "value": "3 (Level 3: growth control rate is greater than or equal to 40% and less than 60%)"}, {"measurement": "Stellaria media (activity level)", "setting": "Stellaria media; Table 2, dose 125 g a.i./ha", "value": "3 (Level 3: growth control rate is greater than or equal to 40% and less than 60%)"}, {"measurement": "Stellaria media (activity level)", "setting": "Stellaria media; Table 2, dose 250 g a.i./ha", "value": "4 (Level 4: growth control rate is greater than or equal to 60% and less than 85%)"}, {"measurement": "Stellaria media (activity level)", "setting": "Stellaria media; Table 2, dose 500 g a.i./ha", "value": "4 (Level 4: growth control rate is greater than or equal to 60% and less than 85%)"}, {"measurement": "Amaranthus retroflexus (activity level)", "setting": "Amaranthus retroflexus; Table 2, dose 60 g a.i./ha", "value": "4 (Level 4: growth control rate is greater than or equal to 60% and less than 85%)"}, {"measurement": "Amaranthus retroflexus (activity level)", "setting": "Amaranthus retroflexus; Table 2, dose 125 g a.i./ha", "value": "4 (Level 4: growth control rate is greater than or equal to 60% and less than 85%)"}, {"measurement": "Amaranthus retroflexus (activity level)", "setting": "Amaranthus retroflexus; Table 2, dose 250 g a.i./ha", "value": "4 (Level 4: growth control rate is greater than or equal to 60% and less than 85%)"}, {"measurement": "Amaranthus retroflexus (activity level)", "setting": "Amaranthus retroflexus; Table 2, dose 500 g a.i./ha", "value": "4 (Level 4: growth control rate is greater than or equal to 60% and less than 85%)"}]}, {"compound": "CCC[S@+]([O-])c1c(C(F)(F)F)ccc(C(=O)Nc2nnc(C)o2)c1F", "note": "[1-8 (S-configuration)]", "values": [{"measurement": "inhibition at 30 g/ha", "setting": "Green Setaria viridis; Setaria viridis, post-emergence, read-out: Green Setaria viridis (30 g a.i./ha) inhibition rate", "value": 0, "unit": "%"}, {"measurement": "inhibition at 60 g/ha", "setting": "Green Setaria viridis; Setaria viridis, post-emergence, read-out: Green Setaria viridis (60 g a.i./ha) inhibition rate", "value": 15, "unit": "%"}, {"measurement": "inhibition at 60 g/ha", "setting": "Leptochloa chinensis; Dinebra chinensis, post-emergence, read-out: Leptochloa chinensis (60 g a.i./ha) inhibition rate", "value": 0, "unit": "%"}, {"measurement": "inhibition at 125 g/ha", "setting": "Leptochloa chinensis; Dinebra chinensis, post-emergence, read-out: Leptochloa chinensis (125 g a.i./ha) inhibition rate", "value": 10, "unit": "%"}, {"measurement": "activity against key weed Leptochloa chinensis / key weeds, in words", "setting": "Leptochloa chinensis; in vivo", "value": "lower activity"}, {"measurement": "inhibition at 30 g/ha", "setting": "Digitaria sanguinalis [3]; Digitaria sanguinalis, post-emergence, read-out: Digitaria sanguinalis (30 g a.i./ha) inhibition rate", "value": 0, "unit": "%"}, {"measurement": "inhibition at 30 g/ha", "setting": "Abutilon theophrasti [4]; Abutilon theophrasti, post-emergence, read-out: Ablation theophrasti (30 g a.i./ha) inhibition rate", "value": 0, "unit": "%"}, {"measurement": "Rice (Longyang 16) (250 g a.i./ha) inhibition rate", "setting": "Rice (Longyang 16); 250 g a.i./ha", "value": 15, "unit": "%"}, {"measurement": "Rice (Longyang 16) (500 g a.i./ha) inhibition rate", "setting": "Rice (Longyang 16); 500 g a.i./ha", "value": 25, "unit": "%"}, {"measurement": "safety on rice (Longyang 16), in words", "setting": "Rice (Longyang 16); in vivo", "value": "not safe"}]}]}
